According to US9980943B2, “Methods of treating muscular dystrophy” (BOARD OF REGENTS OF THE NEVADA SYSTEM OF HIGHER EDUCATION, …, priority 2013, dated 2018):

Experiments:
Assay type in all cases: cell-based, mouse
[1] = tested on: α7 integrin (LacZ reporter in α7βgal+/− myoblasts); experiment: Myoblast α7+/LacZ integrin FDG assay (Burkin assay in myoblasts, 96-well); details: α7+/LacZ myoblasts, 96-well
[2] = tested on: α7 integrin (LacZ reporter in α7+/LacZ myotubes); experiment: Myotube α7 integrin FDG assay (Burkin assay in myotubes, 96-well); details: myotubes
[3] = tested on: β-galactosidase in CMV-LacZ C2C12 myoblasts; experiment: CMV-LacZ secondary screen in C2C12 myoblasts (β-Gal stabilizing assay); details: CMV-LacZ C2C12 myoblasts
Method in brief: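 Stable CMV-LacZ C2C12 clone; six-point curve 0.5–40 μM; duplicates.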

[4] = tested on: β-galactosidase in CMV-LacZ C2C12 myotubes; experiment: CMV-LacZ secondary screen in C2C12 myotubes (β-Gal stabilizing assay); details: C2C12 CMV-LacZ myotubes, fold relative to DMSO
Method in brief: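 β-gal stabilization was measured in C2C12 myoblasts or myotubes stably transfected with a CMV-driven LacZ construct, using the FDG β-gal assay. Compounds were tested in dose-response at 0.5, 1, 5, 10, 20 and 40 μM, with two replicates per point.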

| Structure (SMILES) | Burkin Assay in Myoblasts, signal relative to DMSO ([1]; 0.5 uM) | Burkin Assay in Myoblasts, signal relative to DMSO ([1]; 1 uM) | Burkin Assay in Myoblasts, signal relative to DMSO ([1]; 5 uM) | Burkin Assay in Myoblasts, signal relative to DMSO ([1]; 10 uM) | Burkin Assay in Myoblasts, signal relative to DMSO ([1]; 20 uM) | Burkin Assay in Myoblasts, signal relative to DMSO ([1]; 40 uM) | Burkin Assay in Myotubes, α7 integrin LacZ reporter signal relative to DMSO ([2]; 0.5 uM) | Burkin Assay in Myotubes, α7 integrin LacZ reporter signal relative to DMSO ([2]; 1 uM) | Burkin Assay in Myotubes, α7 integrin LacZ reporter signal relative to DMSO ([2]; 5 uM) | Burkin Assay in Myotubes, α7 integrin LacZ reporter signal relative to DMSO ([2]; 10 uM) | Burkin Assay in Myotubes, α7 integrin LacZ reporter signal relative to DMSO ([2]; 20 uM) | Burkin Assay in Myotubes, α7 integrin LacZ reporter signal relative to DMSO ([2]; 40 uM) | CMV-LACZ in Myoblasts (β-galactosidase activity relative to DMSO) ([3]; 0.5 uM) | CMV-LACZ in Myoblasts (β-galactosidase activity relative to DMSO) ([3]; 1 uM) | CMV-LACZ in Myoblasts (β-galactosidase activity relative to DMSO) ([3]; 5 uM) | CMV-LACZ in Myoblasts (β-galactosidase activity relative to DMSO) ([3]; 10 uM) | CMV-LACZ in Myoblasts (β-galactosidase activity relative to DMSO) ([3]; 20 uM) | CMV-LACZ in Myoblasts (β-galactosidase activity relative to DMSO) ([3]; 40 uM) | CMV-LACZ in Myotubes, signal relative to DMSO ([4]; 0.5 uM) | CMV-LACZ in Myotubes, signal relative to DMSO ([4]; 1 uM) | further results |
| --- | --- | --- | --- | --- | --- | --- | --- | --- | --- | --- | --- | --- | --- | --- | --- | --- | --- | --- | --- | --- | --- |
| c1ccc(-c2nn[nH]n2)nc1 [MLS000767397-01] | 0.8862 | 0.839 | 1.476 | 0.9334 | 1.613 | 0.9754 | 0.9294 | 0.9481 | 1.004 | 1.0608 | 0.9993 | 1.014 | 1.2748 | 1.0646 | 0.9910 | 0.9687 | 0.8485 | 1.1433 | 0.8737 | 1.0368 | CMV-LACZ in Myotubes, signal relative to DMSO ([4]; 5 uM): 0.9425; CMV-LACZ in Myotubes, signal relative to DMSO ([4]; 10 uM): 0.9519; CMV-LACZ in Myotubes, signal relative to DMSO ([4]; 20 uM): 1.0144; CMV-LACZ in Myotubes, signal relative to DMSO ([4]; 40 uM): 1.0067 |
| CCOC(=O)C1=C(CC)Nc2ccccc2N=C1NC(=O)c1ccc(OC)c(S(=O)(=O)N2CCCCC2C)c1 (stereo not drawn) [MLS000776409-01] | 1.1194 | 1.007 | 0.9389 | 0.9838 | 0.5087 | 0.3444 | 0.8925 | 1.029 | 0.882 | 0.9284 | 0.8949 | 0.8056 | 1.1220 | 0.9103 | 0.8929 | 0.9052 | 1.3344 | 0.2105 | 1.0552 | 0.9752 | CMV-LACZ in Myotubes, signal relative to DMSO ([4]; 5 uM): 1.0186; CMV-LACZ in Myotubes, signal relative to DMSO ([4]; 10 uM): 1.1035; CMV-LACZ in Myotubes, signal relative to DMSO ([4]; 20 uM): 1.1040; CMV-LACZ in Myotubes, signal relative to DMSO ([4]; 40 uM): 1.1540 |
| Nc1cccc(/C=C/C(=O)O)c1 [MLS000777780-01] | 1.136 | 1.056 | 0.9439 | 1.248 | 0.9133 | 0.7231 | 1.047 | 0.9837 | 0.8697 | 0.9393 | 0.8814 | 0.7756 | 0.8779 | 0.9063 | 0.9893 | 1.0126 | 1.3393 | 0.9463 | 0.8914 | 0.8838 | CMV-LACZ in Myotubes, signal relative to DMSO ([4]; 5 uM): 1.0471; CMV-LACZ in Myotubes, signal relative to DMSO ([4]; 10 uM): 0.8808; CMV-LACZ in Myotubes, signal relative to DMSO ([4]; 20 uM): 0.9316; CMV-LACZ in Myotubes, signal relative to DMSO ([4]; 40 uM): 1.0474 |
